{"source": "patent US20120208873A1", "about": "“TEA POLYPHENOLS PRODUCTS FOR CEASING SMOKING AND TREATING AND/OR PREVENTING NICOTINE OR NICOTINE-DERIVED COMPOUNDS OR ESTROGEN INDUCED BREAST CANCER” (priority 2011, published 2012)", "type_in_all_cases": "cell-based, human", "key": {"α9-nAChR protein": {"tested_on": "α9-nAChR protein", "assay": "α9-nAChR protein levels by immunoblotting in MCF-7 cells", "settings": "MCF-7", "description": "Human mammary gland epithelial adenocarcinomas (MCF7, MDA-MB-231, AU-565, MDA-MB-453, and BT-483) and normal human mammary gland epithelial fibrocystic cell lines (MCF-10A and HBL-100) were purchased from ATCC (American Type Culture Collection, Manassas, Va., USA). MCF-7, MDA-MB-231, and MDA-MB-453 cells were maintained in DMEM, whereas BT-483 cells were maintained in RPMI-1640. Cell growth, proliferation, and viability were determined by the 3-(4,5-dimethylthiazol-2-yl)-2,5-diphenyltetrazolium (MTT) assay. The formazan product was measured by absorbance at 540 nm.\nTo prepare protein samples, cells were washed once with ice-cold PBS and lysed on ice in cell lysis buffer (50 mM Tris-HCl, pH 8.0, 120 mM […], 0.5% Nonidet P-40, 100 mM sodium fluoride, and 200 μM sodium orthovanadate) containing protease inhibitors as described previously (Shih, Y. L., Liu, H. C., Chen, C. S., Hsu, C. H. et al., J. Agric. Food Chem. 2010, 58, 235-241). Protein (50 μg) from each sample was resolved by 12% SDS-polyacrylamide gel electrophoresis, transferred, and analyzed by Western blotting. Antibodies were purchased from the following vendors: anti-total AKT and protein A/G agarose beads were obtained from Santa Cruz Biotechnology (Santa Cruz, Calif., USA); anti-GAPDH and anti-α9-nAChR antibodies were from Abcam (Cambridge, UK); antiphospho AKT (Ser^473), anti-c-Jun, and anti-c-Fos were from Cell Signaling Technology (Beverly, Mass., USA). The secondary antibodies, alkaline phosphatase-coupled anti-mouse, and anti-rabbit IgG were purchased from Santa Cruz Biotechnology. The specific protein complexes were identified with the chromogenic substrates nitro blue tetrazolium, and 5-bromo-4-chloro-3-indolyl-phosphate from KPL (Gaithersburg, Md., USA). In each experiment, proteins were also probed with anti-GAPDH antibodies as a protein-loading control."}, "α9-nAChR mRNA": {"tested_on": "α9-nAChR mRNA", "assay": "α9-nAChR mRNA by RT-PCR / real-time PCR in MCF-7 cells", "settings": "24 h", "description": "Total RNA was isolated from human cell lines using TRIzol (Invitrogen, Carlsbad, Calif., USA) according to the manufacturer's protocol. The α9-nAChR subunit-specific primers were synthesized by MB Mission BioTech (Taipei, Taiwan) as described in the previous reports (Chen, C. S., Lee, C. H., Hsieh, C. D., Ho, C. T. et al., Breast Cancer Res. Treat. 2010; Shih, Y. L., Liu, H. C., Chen, C. S., Hsu, C. H. et al., J. Agric. Food Chem. 2010, 58, 235-241). The PCR amplicons were analyzed on 1.2% agarose gels (Amresco, Solon, Ohio, USA) stained with ethidium bromide. The α9-nAChR mRNA intensity was measured and normalized to β-glucuronidase expression. Pictures of the bands were taken using an INFINITY-α digital imaging system (Vilber Lourmat, France), and band intensities were determined using PhotoCapt Version 11.01 software."}, "α9-nAChR promoter": {"tested_on": "α9-nAChR promoter", "assay": "α9-nAChR promoter luciferase activity assay in MCF-7 cells", "settings": "EGCG 10 μM 24 h pretreatment, then Nic or E2 24 h", "description": "All α9-nAChR promoter—luciferase gene fusions were made in the pGL3-Basic vector (Promega, Madison, Wis., USA) by introducing the appropriate α9-nAChR promoter fragments into the polylinker upstream of the luciferase gene. These fragments were generated with restriction enzymes and cloned directly into pGL3-Basic or subcloned first in pBluescript and then transferred to pGL3-Basic. Deletion analysis of the most promoter-proximal region was performed by generating either appropriate restriction enzyme fragments or PCR fragments with suitable sense oligonucleotides and an antisense primer (5′-[…]-3′ (SEQ ID NO:1)) that anneals to the pGL3-Basic vector downstream of the site of transcription initiation.\nMCF-7 cells were plated in 6-well plates. Cells were transiently cotransfected the next day with 1.5 μg of PGL3-Basic plasmid containing the full-length α9-nAChR promoter and 0.1 μg of the RLTK plasmid (Promega) using an MP-100 microporator (Digital Bio), according to the manufacturer's instructions. After incubation for 24 h, the medium was changed to culture medium containing 10% FBS or 0.1% FB S with or without Nic. Cells were lysed 24 h later with 1× Reporter Lysis Buffer (Promega) and stored frozen at −20° C. overnight. Luciferase activity was determined by testing 50 μL of the cell lysate and 50 μL of the Luciferase Assay Reagent (Promega) using a HIDEX Chameleon Microplate Reader. Relative luciferase units were normalized to renilla luciferase from the same cell lysates. Each luciferase assay experiment was performed three times."}, "AP-1": {"tested_on": "AP-1", "assay": "ChIP assay of AP-1 binding to the α9-nAChR promoter in MCF-7 cells", "settings": "EGCG 10 μM 24 h pretreatment, Nic 10 μM", "description": "Chromatin immunoprecipitation (ChIP) assays of cultured cells were performed as described previously (Chen, C. S., Lee, C. H., Hsieh, C. D., Ho, C. T. et al., Breast Cancer Res. Treat. 2010; Shih, Y. L., Liu, H. C., Chen, C. S., Hsu, C. H. et al., J. Agric. Food Chem. 2010, 58, 235-241). Briefly, after various regimens of Nic treatment, the cells were fixed with a final concentration of 1% formaldehyde directly added to the cell culture medium at 25° C. for 15 min. The crosslinking reaction was terminated with 0.125 M glycine for 5 min, and the cells were collected into a new Eppendorf tube. The cell lysate was sonicated three times with 10 s bursts to yield input DNA enriched for fragments around 1000 bp in size. A c-Jun (AP-1) antibody (Santa Cruz Biotechnology) was used for the immunoprecipitation reactions. Primers, which detect the a9-nAChR promoter regions, amplified a region from −960 to −1 for 32 cycles (forward: 5′-ATGCAATG CAAGCCTGAGCT-3′ (SEQ ID NO:2) and reverse: 5′-TATA-[…]-3′ (SEQ ID NO:3)). The PCR products were then separated and analyzed by agarose gel electrophoresis."}}, "note": "“Also recorded” adds a separate entry of the source."}
{"smiles": "O=C(O[C@@H]1Cc2c(O)cc(O)cc2O[C@@H]1c1cc(O)c(O)c(O)c1)c1cc(O)c(O)c(O)c1", "note": "[EGCG, (−)-epigallocatechin-3-gallate]", "values": [{"measurement": "Nic- and E2-induced upregulation of α9-nAChR protein after inhibitor pretreatment", "setting": "α9-nAChR protein; 24 h pretreatment (LY294002 25 μM or EGCG 10 μM), then Nic 10 μM or E2 10 nM 24 h", "value": "almost completely inhibited; also recorded: significantly inhibited"}, {"measurement": "α9-nAChR protein in Nic-treated cells", "setting": "α9-nAChR protein; EGCG 1 μM with Nic 10 μM, 24 h", "value": "downregulated"}, {"measurement": "α9-nAChR protein expression induced by either Nic or E2", "setting": "α9-nAChR protein; Nic 10 μM or E2 10 nM in presence of EGCG 1-10 μM, 24 h", "value": "significantly inhibited"}, {"measurement": "α9-nAChR mRNA in Nic-treated cells", "setting": "α9-nAChR mRNA; EGCG 1 μM with Nic 10 μM, RT-PCR", "value": "downregulated"}, {"measurement": "Nic- or E2-induced α9-nAChR mRNA upregulation (real-time PCR)", "setting": "α9-nAChR mRNA; EGCG 10 μM, Nic 10 μM or E2 10 nM", "value": "completely attenuated"}, {"measurement": "Nic- and E2-induced α9-nAChR promoter luciferase activity", "setting": "α9-nAChR promoter", "value": "significantly reduces"}, {"measurement": "Nic-induced AP-1 binding to the α9-nAChR promoter", "setting": "AP-1", "value": "attenuated"}]}
